According to BindingDB's records for doi:10.1016/j.bmc.2013.02.042 (The City University of New York, 2013):

Biological target: Sphingosine kinase 1 (Homo sapiens, UniProt Q9NYA1)
Assay: Competitive inhibition of SK1 (unknown origin) in presence of ATP

Chain of Sphingosine kinase 1 (Q9NYA1 whole entry): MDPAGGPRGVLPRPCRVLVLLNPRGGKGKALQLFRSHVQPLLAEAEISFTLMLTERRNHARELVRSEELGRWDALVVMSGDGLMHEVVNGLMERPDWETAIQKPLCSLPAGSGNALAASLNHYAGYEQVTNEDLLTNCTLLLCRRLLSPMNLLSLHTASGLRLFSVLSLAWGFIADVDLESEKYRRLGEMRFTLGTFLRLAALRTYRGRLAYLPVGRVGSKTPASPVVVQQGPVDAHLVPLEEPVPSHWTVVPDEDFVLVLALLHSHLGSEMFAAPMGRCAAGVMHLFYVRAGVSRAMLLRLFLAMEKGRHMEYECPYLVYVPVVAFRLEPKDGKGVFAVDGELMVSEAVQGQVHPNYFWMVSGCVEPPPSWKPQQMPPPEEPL

SMILES: CCCCCCCCc1ccc(CC[C@](N)(/C=C/P(=O)(O)O)CO)cc1
- Ki: 10 µM
